Like-named read-outs stand apart in the source and are kept apart here.
Assays:
[1] = tested on: human growth hormone (532) promoter; assay: High-throughput luciferase reporter assay, human Growth Hormone promoter (Screen III); type: cell-based; conditions: 532 cells, 6 hours; for FOLD INHIBITION RELATIVE TO SOLVENT CONTROL, hGH: Screen III inhibitors; for FOLD INDUCTION RELATIVE TO SOLVENT CONTROL, hGH: Screen III activators
MMTV (M10) promoter = assay: High-throughput luciferase reporter assay, MMTV promoter (Screen III); type: cell-based, mouse; conditions: M10 cells, 6 hours; for FOLD INHIBITION RELATIVE TO SOLVENT CONTROL, MMTV: Screen III inhibitors; for FOLD INDUCTION RELATIVE TO SOLVENT CONTROL, MMTV: Screen III activators
Description: pMluci and pSV2Neo, an antibiotic resistance plasmid (112), were co-transfected into NIH/3T3 mouse fibroblast cells using the calcium phosphate precipitation method (103) with a commercially available kit (Pharmacia, Piscataway N.J.). Two days later, cells were transferred to media containing 0.4 mg/ml G418 and were grown for an additional 10-14 days. G418-resistant clones were isolated by standard methods. Once sufficient cell numbers were obtained, clones were analyzed based on several criteria: constitutive luciferase production, induction of luciferase expression by dexamethasone (1 μm, Sigma, St. Louis, Mo.), satisfactory attachment to microtiter plates used in the high-throughput screen and acceptable standard deviation in multiple luciferase expression assays (see below for assay protocol). This analysis was carried out using the luciferase assay conditions described above. Of the clones which satisfied the above criteria for the high throuphput screen, one clone, M10, was selected for use.

[2] = tested on: human G-CSF (G21) promoter; assay: High-throughput luciferase reporter assay, G-CSF promoter (Screen III); conditions: for FOLD INDUCTION RELATIVE TO SOLVENT CONTROL, GCSF: Screen III activators
[3] = Screen III inhibitors, G21 cells, 6 hours

Row | SMILES | FOLD INHIBITION RELATIVE TO SOLVENT CONTROL, hGH [1] | FOLD INHIBITION RELATIVE TO SOLVENT CONTROL, MMTV (MMTV (M10) promoter) | FOLD INHIBITION RELATIVE TO SOLVENT CONTROL, GCSF [2, 3] | FOLD INDUCTION RELATIVE TO SOLVENT CONTROL, hGH [1] | FOLD INDUCTION RELATIVE TO SOLVENT CONTROL, MMTV (MMTV (M10) promoter) | FOLD INDUCTION RELATIVE TO SOLVENT CONTROL, GCSF ([2]; G21 cells, 6 hours) | FOLD INHIBITION RELATIVE TO SOLVENT CONTROL, GCSF [2]
1 | CC(=O)NCCCC[C@H](NC(C)=O)C(=O)O [compound 577] | 4.00 fold | 0.68 fold | 0.64 fold |  |  |  | 
2 | O=C(O[C@H](C(=O)O)[C@H](OC(=O)c1ccccc1)C(=O)O)c1ccccc1 [compound 578] | 4.00 fold | 0.91 fold | 0.65 fold |  |  |  | 
3 | COc1ccc(CC(=O)O)cc1OC [compound 629] |  |  |  | 1.05 fold | 2.48 fold | 0.85 fold | 
4 | O=C(O)CC1NC(=O)NC1=O (stereo not drawn) [compound 630] | 3.57 fold | 0.74 fold | 0.70 fold |  |  |  | 
5 | O=C(O)c1[nH]c(=O)[nH]c(=O)c1I [compound 633] |  |  |  | 0.86 fold | 2.46 fold | 1.02 fold | 
6 | Nc1c(O)c(S(=O)(=O)O)c(O)c2c1C(=O)c1ccccc1C2=O [compound 640] | 5.00 fold | 0.59 fold | 0.64 fold |  |  |  | 
7 | O=C(c1ccc(O)c(O)c1)c1c(O)cc(O)cc1O [compound 660] | 0.34 fold | 1.04 fold | 10.0 fold |  |  |  | 
8 | CN(C)c1ccc(C(=C2C=CC(=[N+](C)C)C=C2)c2ccc([N+](C)(C)C)cc2)cc1 [compound 670] |  |  |  | 0.52 fold | 0.79 fold | > 3 fold | 
9 | C1CCNCC1 [compound 759] | 5.88 fold | 0.95 fold |  |  |  |  | 0.64
10 | CC(=O)OCC(=O)[C@@]1(O)CC[C@H]2[C@@H]3CCC4=CC(=O)C=C[C@]4(C)[C@H]3[C@@H](O)C[C@@]21C [compound 765] |  |  |  | 1.30 fold | 2.66 fold | 0.96 fold | 
11 | CCOc1ccc2nc3cc(N)ccc3c(N)c2c1 [compound 790] |  |  |  | 5.94 fold | 0.58 fold | 0.01 fold | 
12 | O=C1OC2(c3cc(I)c(O)c(I)c3Oc3c2cc(I)c(O)c3I)c2c(Cl)c(Cl)c(Cl)c(Cl)c21 [compound 792] |  |  |  | 5.31 fold | 1.21 fold | 0.94 fold | 
13 | Clc1ccc(Sc2cc(Cl)c(Cl)cc2Cl)cc1 [compound 828] |  |  |  | 1.34 fold | 2.20 fold | 1.47 fold | 
14 | N=c1ccc2nc3ccc(N)cc3sc-2c1 [compound 836] |  |  |  | 0.23 fold | 0.58 fold | 3.20 fold | 
15 | CC1(C)O[C@@H]2C[C@H]3[C@@H]4CCC5=CC(=O)C=C[C@]5(C)[C@@]4(F)[C@@H](O)C[C@]3(C)[C@]2(C(=O)CO)O1 [compound 848] |  |  |  | 1.28 fold | 2.43 fold | 0.75 fold | 
16 | CCCCCCCCCCCCCCCC(=O)OCC(COC(=O)CCCCCCCCCCCCCCC)OC(=O)CCCCCCCCCCCCCCC [compound 856] |  |  |  | 6.49 fold | 0.42 fold | 0.28 fold | 
17 | Nc1ccc(C=CC(=O)O)cc1 [compound 1234] |  |  |  | 0.51 fold | 1.03 fold | 4.97 fold | 
18 | Cc1c(C2(c3cc(Br)c(O)c(Br)c3C)OS(=O)(=O)c3ccccc32)cc(Br)c(O)c1Br [compound 1251] |  |  |  | 15.19 fold | 0.33 fold | 0.14 fold | 

Row | SMILES | FOLD INHIBITION RELATIVE TO SOLVENT CONTROL, hGH [1] | FOLD INHIBITION RELATIVE TO SOLVENT CONTROL, MMTV (MMTV (M10) promoter) | FOLD INHIBITION RELATIVE TO SOLVENT CONTROL, GCSF [2, 3] | FOLD INDUCTION RELATIVE TO SOLVENT CONTROL, hGH [1] | FOLD INDUCTION RELATIVE TO SOLVENT CONTROL, MMTV (MMTV (M10) promoter) | FOLD INDUCTION RELATIVE TO SOLVENT CONTROL, GCSF ([2]; G21 cells, 6 hours) | FOLD INHIBITION RELATIVE TO SOLVENT CONTROL, GCSF [2]
19 | Clc1cc(Cl)cc(Br)c1 [compound 1255] |  |  |  | 0.43 fold | 1.09 fold | 6.74 fold | 
20 | Nc1c(Cl)ncnc1Cl [compound 1269] |  |  |  | 0.91 fold | 2.18 fold | 0.72 fold | 
21 | Nc1ccc2c(c1)Cc1ccccc1-2 [compound 1316] |  |  |  | 1.39 fold | 2.33 fold | 0.74 fold | 
22 | Nc1ccc2c(c1)C(=O)c1ccccc1-2 [compound 1318] |  |  |  | 0.85 fold | 2.41 fold | 1.13 fold | 
23 | Nc1ccc(S(=O)(=O)O)c2cccc(O)c12 [compound 1337] |  |  |  | 15.87 fold | 0.23 fold | 0.07 fold | 
24 | NCc1ccc(S(N)(=O)=O)cc1 [compound 1375] |  |  |  | 0.04 fold | 1.37 fold | 8.94 fold | 
25 | Cc1ccc(N)c(S(=O)(=O)O)c1 [compound 1376] |  |  |  | 0.04 fold | 1.32 fold | 6.37 fold | 
26 | Cc1ccc(C(=O)c2ccccc2N)cc1 [compound 1384] |  |  |  | 0.50 fold | 2.43 fold | 1.33 fold | 
27 | Cc1cc(N)sn1 [compound 1397] |  |  |  | 0.57 fold | 1.13 fold | 3.63 fold | 
28 | Nc1ccccc1SSc1ccccc1N [compound 1482] |  |  |  | 0.54 fold | 1.07 fold | 3.99 fold | 
29 | Nc1ccc(SSc2ccc(N)cc2)cc1 [compound 1483] |  |  |  | 0.38 fold | 1.09 fold | 4.64 fold | 
30 | Nc1nc(-c2ccccc2)cs1 [compound 1499] |  |  |  | 5.55 fold | 0.61 fold | 0.24 fold | 
31 | Nc1nc2nc[nH]c2c(=S)[nH]1 [compound 1521] |  |  |  | 0.73 fold | 0.92 fold | 3.59 fold | 
32 | Nc1nccs1 [compound 1550] |  |  |  | 5.44 fold | 0.87 fold | 0.04 fold | 
33 | NC1=NCCS1 [compound 1552] |  |  |  | 7.26 fold | 0.52 fold | 1.23 fold | 
34 | Nc1c(Cl)c(Cl)nc(C(=O)O)c1Cl [compound 1561] |  |  |  | 8.05 fold | 0.48 fold | 0.23 fold | 
35 | Brc1ccc2c3c(cccc13)CC2 [compound 1573] |  |  |  | 0.34 fold | 4.30 fold | 1.49 fold | 

— patent US6203976A, “Methods of preparing compositions comprising chemicals capable of transcriptional modulation” (OSI Pharmaceuticals, Inc., priority 1994, dated 2001)
